Experimental data published in ChEMBL document CHEMBL1201862, “PubChem BioAssay data set” (2004).
Calls of active or inactive are those of the source.

Columns and labels:
Beta-galactosidase = Beta-galactosidase (Escherichia coli, UniProt Q8VNN2); assay: Dose response counterscreen for EBI2 assay utilizing the enzyme, b-galactosidase.; type: functional
[1] = molecular target: T1, Mannose-6-phosphate isomerase (Homo sapiens, UniProt P34949); assay: human PMI inhibitors, high substrate, primary screen, biochemical, fluorescence intensity, high mannose 6-phosphate (AID 1220)
T1 sequence (P34949 whole entry): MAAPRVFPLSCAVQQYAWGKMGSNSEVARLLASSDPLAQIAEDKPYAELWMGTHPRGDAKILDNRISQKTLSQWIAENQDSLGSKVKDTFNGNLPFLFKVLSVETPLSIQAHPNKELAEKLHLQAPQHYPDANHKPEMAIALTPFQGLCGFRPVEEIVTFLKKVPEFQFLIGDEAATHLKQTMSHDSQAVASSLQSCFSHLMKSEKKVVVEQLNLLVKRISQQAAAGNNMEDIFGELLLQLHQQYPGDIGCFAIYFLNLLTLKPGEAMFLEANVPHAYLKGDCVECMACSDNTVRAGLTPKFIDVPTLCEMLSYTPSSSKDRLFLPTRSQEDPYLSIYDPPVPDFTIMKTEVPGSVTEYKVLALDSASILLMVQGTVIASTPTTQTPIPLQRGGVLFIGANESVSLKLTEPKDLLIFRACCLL

Protein RecA = molecular target: T2, Protein RecA (Mycobacterium tuberculosis, UniProt P9WHJ3); assay: Fluorescence Cell-Free Homogeneous Dose Retest to Identify Inhibitors of RecA-Intein Splicing Activity. [Related pubchem assays (depositor defined):AID2097, AID2223, AID489010, AID492950]; type: functional
T2 sequence (P9WHJ3 whole entry): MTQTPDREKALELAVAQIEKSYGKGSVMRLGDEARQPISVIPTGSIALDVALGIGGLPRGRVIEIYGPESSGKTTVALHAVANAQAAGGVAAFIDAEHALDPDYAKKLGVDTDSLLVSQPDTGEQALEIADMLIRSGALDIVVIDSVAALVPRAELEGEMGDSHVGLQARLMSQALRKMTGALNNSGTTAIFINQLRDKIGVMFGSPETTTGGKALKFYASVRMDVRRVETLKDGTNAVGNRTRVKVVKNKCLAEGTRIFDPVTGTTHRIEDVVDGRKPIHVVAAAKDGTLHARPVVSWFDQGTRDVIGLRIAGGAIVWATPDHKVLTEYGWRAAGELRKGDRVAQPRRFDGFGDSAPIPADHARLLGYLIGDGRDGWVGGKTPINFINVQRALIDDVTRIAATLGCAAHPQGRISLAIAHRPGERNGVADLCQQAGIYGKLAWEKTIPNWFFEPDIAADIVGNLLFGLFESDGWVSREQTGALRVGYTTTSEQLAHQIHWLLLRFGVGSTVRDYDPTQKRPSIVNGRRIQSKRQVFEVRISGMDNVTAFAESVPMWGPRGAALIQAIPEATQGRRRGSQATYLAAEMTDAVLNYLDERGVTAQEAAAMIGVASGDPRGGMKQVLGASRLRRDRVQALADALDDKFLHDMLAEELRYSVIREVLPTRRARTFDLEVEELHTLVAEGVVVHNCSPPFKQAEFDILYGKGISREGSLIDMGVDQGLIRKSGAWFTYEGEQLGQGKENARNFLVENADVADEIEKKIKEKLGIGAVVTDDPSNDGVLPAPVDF

[2] = molecular target: T3, Replicative DNA helicase DnaB (Mycobacterium tuberculosis, UniProt P9WMR3); assay: DnaB intein splicing inhibitors, dose response, biochemical, cell-free fluorescence (AID 449749); type: functional
T3 sequence (P9WMR3 whole entry): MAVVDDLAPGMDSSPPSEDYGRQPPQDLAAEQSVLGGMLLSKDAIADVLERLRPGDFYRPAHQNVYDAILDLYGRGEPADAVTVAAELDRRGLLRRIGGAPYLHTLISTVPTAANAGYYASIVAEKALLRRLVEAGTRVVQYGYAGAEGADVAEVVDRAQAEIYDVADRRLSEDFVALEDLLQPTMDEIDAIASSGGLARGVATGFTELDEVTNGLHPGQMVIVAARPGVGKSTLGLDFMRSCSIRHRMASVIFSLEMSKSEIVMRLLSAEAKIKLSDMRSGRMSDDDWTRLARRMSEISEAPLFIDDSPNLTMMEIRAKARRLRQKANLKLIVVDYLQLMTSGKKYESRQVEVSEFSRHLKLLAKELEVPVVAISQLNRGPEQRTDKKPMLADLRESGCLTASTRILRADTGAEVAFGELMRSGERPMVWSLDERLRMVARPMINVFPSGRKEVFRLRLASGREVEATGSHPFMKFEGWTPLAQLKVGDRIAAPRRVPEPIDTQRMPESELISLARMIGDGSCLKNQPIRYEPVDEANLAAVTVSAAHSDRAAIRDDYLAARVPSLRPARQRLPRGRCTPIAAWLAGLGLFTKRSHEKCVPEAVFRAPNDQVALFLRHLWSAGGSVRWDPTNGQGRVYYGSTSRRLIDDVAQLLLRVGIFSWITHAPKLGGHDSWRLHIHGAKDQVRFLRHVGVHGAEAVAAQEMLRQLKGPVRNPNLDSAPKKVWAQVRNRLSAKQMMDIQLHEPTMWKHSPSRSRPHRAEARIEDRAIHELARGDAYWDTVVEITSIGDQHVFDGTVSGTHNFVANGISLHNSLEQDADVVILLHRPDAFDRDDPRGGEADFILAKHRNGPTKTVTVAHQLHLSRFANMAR

[3] = molecular target: Fructose-bisphosphate aldolase (Mycobacterium tuberculosis, UniProt P9WQA3); assay: Fluorescence-based biochemical high throughput dose response assay for inhibitors of the fructose-bisphosphate aldolase (FBA) of M. tuberculosis.; type: functional
Vero = Vero cell cytotoxicity, cytotoxicity control for flavivirus capping enzyme inhibitors (AID 588742); type: functional; settings: Chlorocebus sabaeus
[4] = HepG2 cell cytotoxicity, dose response, cytotoxicity control, ATP luminescence, cherry-pick, activator set 2 (AID 1053143); type: functional, cell-based
cells [5] = type: functional, cell-based
cells [6] = type: functional, cell-based; remark: listed apart in the source
Protein Wnt-3a = Protein Wnt-3a (Mus musculus, UniProt P27467); assay: Wnt3a-driven reporter signaling inhibition, dose response, selectivity assay for Gli-SUFU antagonist project, Wnt-LIGHT cells, luminescence (AID 651570); type: functional; settings: read-out: IC50_Mean;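 further: Wnt-LIGHT reporter cells stimulated with conditioned medium from Wnt3a-producing cells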
[7] = CEM21 cell cytotoxicity, dose response, cytotoxicity control, plate reader, dry powder (AID 687026); type: functional, cell-based
[8] = HepG2 cell cytotoxicity, dose response, cytotoxicity control for Shn3 inhibitor project, CellTiter-Glo, cherry-picked (AID 624134); type: functional, cell-based
[9] = off-target signal loss in HeLa-CEM21 co-culture – HeLa F-luc CTL cells, cherry-picked, counter-screen for HIV-1 Env fusion inhibitor project, dose response (AID 652040); type: functional, cell-based;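 further: potency for signal decrease marking cytotoxic or nonspecific inhibition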
[10] = Shn3 3'UTR reporter inhibitors, dose response, cell-based, Clone20 osteoblasts, firefly luciferase, cherry-picked (AID 624132); type: functional;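 further: firefly luciferase luminescence from reporter carrying the Shn3 3'UTR in osteoblasts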
[11] = inhibitors of clade B AD8 Env fusion, dose response, cell-based, cherry-pick (AID 652062); type: functional;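 further: luciferase signal from cell-cell fusion driven by HIV-1 clade B AD8 Env; potency is for inhibitors of fusion seen as a drop in luminescence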
INS1 = assay: beta cell apoptosis inhibitors, cytokine rescue, dose response, luminescence, retest (AID 449756); type: functional, cell-based; settings: Rattus norvegicus;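 further: cell death triggered by IL-1 beta plus TNF-alpha plus IFN-gamma mixture; protective hits raise ATP signal compared with cytokine alone wells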
[12] = inhibitors of HIV Env-driven cell fusion, dose response, cherry-pick (AID 652057); type: functional, cell-based
[13] = control 3'UTR Renilla luciferase suppression, dose response, counter-screen for Shn3 inhibitor project, cell-based, Clone20-Shn3RL, cherry-picked (AID 624133); type: functional
[14] = human group III sPLA2 inhibitors, dose response, biochemical, QFRET, IC50 (AID 743457);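 further: green fluorescence rise as the enzyme cleaves BODIPY PC-A2 in liposomes; potency for inhibition of the enzyme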
[15] = TRPM1 promoter luciferase reporter signal decrease, dose response, MITF inhibitor project, cell-based, SK-MEL-5, dry powder, set 8 (AID 624430); type: functional
[16] = MITF: Counter assay: A375 proliferation Measured in Cell-Based System Using Plate Reader - 2084-03_Inhibitor_Dose_DryPowder_Activity_Set8.; type: functional; settings: A-375
[17] = MITF Orthogonal Assay: SK-MEL-5 CTG Assay Measured in Cell-Based System Using Plate Reader - 2084-02_Inhibitor_Dose_DryPowder_Activity_Set7.; type: functional
[18] = molecular target: Histone-lysine N-methyltransferase NSD2 (Homo sapiens, UniProt O96028); type: biochemical
[19] = Late stage assay provider results from the probe development effort to identify selective inhibitors of heat shock protein 90 (HSP90): Absorbance-based cell proliferation assay in SKBR3 cells.; type: functional; settings: SK-BR-3
[20] = Late stage assay provider results from the probe development effort to identify selective inhibitors of heat shock protein 90 (HSP90): Absorbance-based cell proliferation assay in MCF7 cells.; type: functional

Protein Wnt-3a, sequence (P27467 whole entry): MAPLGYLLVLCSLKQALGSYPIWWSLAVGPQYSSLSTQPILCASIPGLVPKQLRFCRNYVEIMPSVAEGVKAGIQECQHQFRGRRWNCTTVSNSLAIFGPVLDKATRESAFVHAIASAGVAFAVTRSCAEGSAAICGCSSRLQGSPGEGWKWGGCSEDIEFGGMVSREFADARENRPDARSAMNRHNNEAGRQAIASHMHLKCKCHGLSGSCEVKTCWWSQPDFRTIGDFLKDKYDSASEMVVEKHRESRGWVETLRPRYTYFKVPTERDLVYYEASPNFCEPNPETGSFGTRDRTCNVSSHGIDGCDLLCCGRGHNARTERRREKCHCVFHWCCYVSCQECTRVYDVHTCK
Histone-lysine N-methyltransferase NSD2, sequence (O96028 whole entry): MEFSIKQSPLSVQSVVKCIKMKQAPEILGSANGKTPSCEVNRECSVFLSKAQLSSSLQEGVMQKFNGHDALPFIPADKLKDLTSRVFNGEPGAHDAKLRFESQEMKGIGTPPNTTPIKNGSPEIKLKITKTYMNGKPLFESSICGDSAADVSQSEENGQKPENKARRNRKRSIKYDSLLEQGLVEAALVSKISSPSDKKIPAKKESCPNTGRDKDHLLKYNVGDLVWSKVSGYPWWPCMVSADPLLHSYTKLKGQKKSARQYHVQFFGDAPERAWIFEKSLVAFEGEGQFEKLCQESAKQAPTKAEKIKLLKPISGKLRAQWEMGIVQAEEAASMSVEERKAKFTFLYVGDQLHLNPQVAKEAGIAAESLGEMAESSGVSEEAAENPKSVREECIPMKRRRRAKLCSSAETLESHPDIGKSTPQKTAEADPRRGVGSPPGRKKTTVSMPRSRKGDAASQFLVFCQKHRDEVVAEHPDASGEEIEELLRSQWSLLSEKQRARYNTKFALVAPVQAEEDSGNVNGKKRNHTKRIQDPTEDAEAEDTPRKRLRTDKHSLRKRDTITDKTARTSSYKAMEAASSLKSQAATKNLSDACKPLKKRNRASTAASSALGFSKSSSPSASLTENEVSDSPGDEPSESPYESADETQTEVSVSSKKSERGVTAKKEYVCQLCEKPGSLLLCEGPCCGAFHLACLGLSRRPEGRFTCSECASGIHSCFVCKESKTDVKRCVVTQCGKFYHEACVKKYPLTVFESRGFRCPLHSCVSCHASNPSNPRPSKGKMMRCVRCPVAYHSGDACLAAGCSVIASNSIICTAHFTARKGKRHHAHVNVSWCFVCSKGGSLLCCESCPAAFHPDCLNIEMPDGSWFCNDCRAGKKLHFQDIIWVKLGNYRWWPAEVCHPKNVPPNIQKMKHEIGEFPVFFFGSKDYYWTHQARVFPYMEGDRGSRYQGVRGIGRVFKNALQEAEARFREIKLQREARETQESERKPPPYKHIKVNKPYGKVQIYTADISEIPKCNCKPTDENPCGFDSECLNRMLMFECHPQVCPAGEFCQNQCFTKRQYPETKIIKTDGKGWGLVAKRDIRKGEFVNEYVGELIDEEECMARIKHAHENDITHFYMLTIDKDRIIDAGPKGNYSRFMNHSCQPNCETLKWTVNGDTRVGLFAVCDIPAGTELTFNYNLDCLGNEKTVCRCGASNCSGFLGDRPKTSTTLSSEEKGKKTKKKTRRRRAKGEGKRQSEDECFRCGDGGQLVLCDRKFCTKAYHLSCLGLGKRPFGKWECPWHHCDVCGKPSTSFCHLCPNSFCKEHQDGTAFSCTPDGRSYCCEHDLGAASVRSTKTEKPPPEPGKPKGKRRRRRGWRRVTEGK
Fructose-bisphosphate aldolase, sequence (P9WQA3 whole entry): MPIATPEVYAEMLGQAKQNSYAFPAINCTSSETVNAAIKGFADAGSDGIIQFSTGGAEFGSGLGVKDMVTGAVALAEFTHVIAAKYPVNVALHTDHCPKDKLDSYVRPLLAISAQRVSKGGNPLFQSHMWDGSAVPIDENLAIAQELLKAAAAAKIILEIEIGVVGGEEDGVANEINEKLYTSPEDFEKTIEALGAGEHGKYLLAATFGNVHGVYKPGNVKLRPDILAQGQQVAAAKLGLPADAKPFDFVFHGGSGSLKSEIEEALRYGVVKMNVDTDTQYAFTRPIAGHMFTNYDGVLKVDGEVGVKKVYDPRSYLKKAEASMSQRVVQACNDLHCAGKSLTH
Beta-galactosidase, sequence (Q8VNN2 whole entry): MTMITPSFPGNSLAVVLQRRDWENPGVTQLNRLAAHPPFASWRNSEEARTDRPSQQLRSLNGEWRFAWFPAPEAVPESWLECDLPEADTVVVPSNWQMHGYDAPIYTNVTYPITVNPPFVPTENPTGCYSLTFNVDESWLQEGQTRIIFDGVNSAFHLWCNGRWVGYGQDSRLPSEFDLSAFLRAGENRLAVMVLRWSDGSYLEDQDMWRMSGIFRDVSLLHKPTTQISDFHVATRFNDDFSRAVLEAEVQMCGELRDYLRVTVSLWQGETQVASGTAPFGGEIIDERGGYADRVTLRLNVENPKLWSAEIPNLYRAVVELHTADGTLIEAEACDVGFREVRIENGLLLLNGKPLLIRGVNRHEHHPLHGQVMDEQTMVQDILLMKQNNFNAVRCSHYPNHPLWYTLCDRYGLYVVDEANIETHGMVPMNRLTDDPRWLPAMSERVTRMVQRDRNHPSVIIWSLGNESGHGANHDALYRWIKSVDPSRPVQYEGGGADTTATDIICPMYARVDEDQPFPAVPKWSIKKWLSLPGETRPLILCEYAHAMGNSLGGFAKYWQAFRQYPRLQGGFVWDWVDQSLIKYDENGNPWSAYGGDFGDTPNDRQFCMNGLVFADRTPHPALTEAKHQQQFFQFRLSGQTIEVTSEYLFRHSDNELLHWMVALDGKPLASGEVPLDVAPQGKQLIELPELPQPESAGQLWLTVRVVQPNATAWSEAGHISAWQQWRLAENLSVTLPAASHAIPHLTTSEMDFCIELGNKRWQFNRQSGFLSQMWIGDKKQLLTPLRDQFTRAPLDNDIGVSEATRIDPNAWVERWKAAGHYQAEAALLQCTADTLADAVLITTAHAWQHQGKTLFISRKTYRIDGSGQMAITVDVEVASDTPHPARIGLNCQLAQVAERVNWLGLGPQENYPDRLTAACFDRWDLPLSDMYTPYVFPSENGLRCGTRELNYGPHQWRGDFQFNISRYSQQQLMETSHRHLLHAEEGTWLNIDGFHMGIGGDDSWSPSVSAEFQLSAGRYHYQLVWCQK

In the case of `CCCCNc1c(-c2ccc(-c3ccc(C(C)=O)cc3)c(OC)c2)nc2cc(C)ccn12`, the IC50 (Beta-galactosidase) is reported as 77.5 µM (inactive).
For `CCOC(=O)c1c(NC(=O)c2ccco2)n(C2CCCCC2)c2nc3ccccc3nc12`, the IC50 [1] was > 50 µM (not active), the EC50 (Protein RecA) was 2.62 µM (active) and the AC50 [2] was 229 µM (active). The IC50 [3] was 1.67 µM (active) and the CC50 (Vero) was > 40 µM (active).
In the case of `COCCNC(=O)c1cc(-c2cccs2)on1`, the AC50 [4] is reported as 26 µM (active), the EC50 (cells [5]) is reported as 70.8 µM (active) and the EC50 (cells [6]) is reported as > 350 µM (not active).
In the case of `COc1ccc(CC(=O)Nc2cccc(S(=O)(=O)N3CCCCCC3)c2)cc1OC`, the IC50 (Protein Wnt-3a) is reported as 1.73 µM (active), the AC50 [7] is reported as > 70 µM (inactive) and the AC50 [8] is reported as 2.12 µM (active). For the same compound, the AC50 [9] was > 70 µM (inactive), the AC50 [10] was 2.27 µM (active) and the AC50 [11] was 3.47 µM (active). The AC50 (INS1) was 6.12 µM (active), the AC50 [12] was 7.05 µM (active) and the AC50 [13] was 30 µM (active).
With `Sc1nnc(-c2ccc(Cl)cc2)n1-c1ccc2c(c1)OCCO2` the IC50 [14] was > 122 µM (inactive).
For `CC(C)(C)c1ccc(NC2=CC(=O)c3ccccc3C2=O)cc1`, the AC50 [15] was 13.9 µM (active), the AC50 [16] was > 70 µM (inactive) and the AC50 [17] was 3.03 µM (active).
For `COCC(C)OC(=O)/C(C#N)=C\c1coc2ccc(C)cc2c1=O` (stereo unspecified), the AC50 [18] was 11.9 µM (active).
For `COC(=O)CCCCOc1ccc2cc(C#N)c(=O)oc2c1`, the IC50 [19] was > 100 µM (inactive) and the IC50 [20] was > 100 µM (inactive).
With `Cc1cccc(-n2c(S)nnc2-c2ccoc2C)c1` the IC50 [14] was > 122 µM (inactive).
